In patent publication US20130131018A1, “SUBSTITUTED ISOQUINOLINES AND THEIR USE AS TUBULIN POLYMERIZATION INHIBITORS” (Exonhit S.A., priority 2010, published 2013):
Where a name gives a salt, the structure may show the parent alone. Read-outs that look alike come from different tables or passages of the source.

Assays:
[1] = phase 1 studies, cited from earlier work
blood flow = conditions: animal studies, cited from earlier work
K562 cell line = experiment: MTT assay: cytotoxicity against the K562 cell line; format: cell-based; conditions: Homo sapiens, K562 cells, 72 h, growth inhibition
Summary of the method: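 Fifteen thousand K562 cells per well were exposed in triplicate to a compound dilution series for 72 h at 37 °C, 5% CO2. Viability was measured by MTT absorbance at 550 nm relative to untreated control, and IC50 was obtained by nonlinear regression.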

purified tubulin = molecular target: T1, purified tubulin (Sus scrofa, UniProt P02550+P02554); experiment: Tubulin polymerisation assay (CytoDYNAMIX Screen kit, absorbance at 340 nm); format: biochemical; conditions: 5 μM compound, 4 mg/ml tubulin; read-out: % Inhibition of tubulin polymerization at 5 μM
T1 construct: purchased Cytoskeleton #BK006P
Method: The polymerization of purified tubulin was monitored spectrophotometrically by the change in absorbance at 340 nm using the CytoDYNAMIX Screen kit (#BK006P, Cytoskeleton) according to the instructions of the manufacturer. […] The absorbance was measured at 1 minute intervals for 60 minutes. The test compound was added to a 4 mg/ml tubulin solution containing 10% glycerol and 1 mM GTP in Buffer 1 (Buffer 1: 80 mM PIPES; 2 mM MgCl2; 0.5 mM EGTA, pH 6.9). Increased absorbance indicates increase in microtubule formation from tubulin heterodimers.

HUVEC = experiment: Pre-established vessels disruption (capillary tubes on Matrigel); format: cell-based; conditions: Homo sapiens, HUVEC tubes formed 5 hours, then compounds overnight
Method: To explore the effect of the compounds on pre-established vasculature, twenty thousand cells (HUVEC) were seeded and incubated over Matrigel for 5 hours to allow the capillary tubes to form. Then, compounds were added and incubated overnight. The disappearance of existing vasculature was monitored with fluorescent microscopy.

[2] = system: Endothelial cells (HUVEC); experiment: Neovessels formation inhibition (capillary tube formation on Matrigel); format: cell-based; conditions: Homo sapiens, HUVEC on Matrigel, compounds overnight
Method: The capability of compounds to inhibit the formation of capillaries was evaluated in vitro. Twenty thousand Endothelial cells (HUVEC) were placed on a Matrigel matrix and allowed to form capillary tubes in the presence or absence of the compounds overnight. The cells were stained with calcein AM, and the effect of the compounds on capillary tube formation was assessed using an inverted fluorescent microscope (Nikon). The reference compound used in this assay AVE-8063 is 3-amino-deoxycombretastatin A-4.

[3] = molecular target: T2, colchicine site on tubulin (biotinylated porcine tubulin) (Sus scrofa, UniProt P02550+P02554); experiment: Tubulin displacement assay (3H-colchicine radioligand binding, SPA); conditions: competition with 50 nM [3H]-colchicine, 4 h at 37° C.; read-out: IC50
T2 construct: biotin (chemical label)
Method: The assay was developped following the method published by Tahir et al. (2001) and others using biotinylated porcine tubulin captured to streptavidin coated yttrium silicate scintillation proximity assay (YSi SPA) beads in a PIPES/EGTA/MgCl2/GTP buffer. […] IC50s were determined using GraphPad Prism Version 5.01 and the sigmoidal dose response with variable slope curve fit.

T2 sequence (P02554 whole entry): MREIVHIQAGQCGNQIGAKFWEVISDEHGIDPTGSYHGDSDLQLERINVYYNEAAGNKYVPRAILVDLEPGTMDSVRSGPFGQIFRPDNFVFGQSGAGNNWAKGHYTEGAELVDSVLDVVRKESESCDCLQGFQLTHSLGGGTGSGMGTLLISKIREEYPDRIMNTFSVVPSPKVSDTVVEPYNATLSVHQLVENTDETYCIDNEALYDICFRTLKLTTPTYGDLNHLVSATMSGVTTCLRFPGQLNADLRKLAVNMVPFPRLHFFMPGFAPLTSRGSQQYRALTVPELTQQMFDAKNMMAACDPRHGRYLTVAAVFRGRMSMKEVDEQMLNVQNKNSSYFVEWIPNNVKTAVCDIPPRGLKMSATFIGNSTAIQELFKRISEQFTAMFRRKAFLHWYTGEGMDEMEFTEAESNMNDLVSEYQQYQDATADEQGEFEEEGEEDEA
T2 sequence (P02550 whole entry): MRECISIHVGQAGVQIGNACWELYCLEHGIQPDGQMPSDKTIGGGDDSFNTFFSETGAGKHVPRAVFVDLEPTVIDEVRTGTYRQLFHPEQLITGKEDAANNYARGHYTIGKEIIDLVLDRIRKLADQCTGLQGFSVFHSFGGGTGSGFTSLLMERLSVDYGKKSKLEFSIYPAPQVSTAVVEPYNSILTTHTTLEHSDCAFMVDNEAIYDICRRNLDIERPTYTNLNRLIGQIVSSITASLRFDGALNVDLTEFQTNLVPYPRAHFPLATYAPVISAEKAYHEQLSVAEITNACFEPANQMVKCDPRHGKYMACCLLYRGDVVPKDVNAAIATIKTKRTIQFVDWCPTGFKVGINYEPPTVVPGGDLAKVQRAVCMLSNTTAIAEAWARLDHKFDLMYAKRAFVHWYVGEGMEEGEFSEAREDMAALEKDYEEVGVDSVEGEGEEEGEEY
T1 sequence (P02554 whole entry): as the sequence (P02554 whole entry) above
T1 sequence (P02550 whole entry): as the sequence (P02550 whole entry) above

inhibition at 5 µM (purified tubulin) [%] | IC50 [3] [nM] | SMILES | dose-limiting toxicities ([1]; administered intravenously) | Responses seen in [1] | blood flow decrease in heart, kidney, and intestine (blood flow; heart, kidney, intestine) | blood flow reduction in spleen, skeletal muscle, and brain (blood flow; spleen, skeletal muscle, brain) | blood flow reduction in the tumor (blood flow; tumor) [fold] | IC50 (K562 cell line) [nM] | IC50 (HUVEC; read-out: Pre-established Vessels Disruption Number of Branch Junctions IC50) [nM] | IC50 (HUVEC; read-out: Pre-established Vessels Disruption Total Tubule Length IC50) [nM] | IC50 ([2]; read-out: Neovessels Formation Inhibition Number of Branch Junctions IC50) [nM] | IC50 ([2]; read-out: Neovessels Formation Inhibition Total Tubule Length IC50) [nM]
 |  | COc1ccc(/C=C\c2cc(OC)c(OC)c(OC)c2)cc1OP(=O)([O-])[O-].[Na+].[Na+] [CA4P, CA-4 disodium phosphate] | dyspnea, neurological disturbances (syncope, motor neuropathy, ataxia), and cardiac and intestinal ischemia | thyroid cancer, sarcoma, and adrenocortical carcinoma | no significant decrease | less than 7 fold | 100 |  |  |  |  | 
4 | 41.4 | CCOc1ccc2c(C(=O)c3cc(OC)c(OC)c(OC)c3)cncc2c1O [Compound 97, (7-Ethoxy-8-hydroxyisoquinolin-4-yl)(3,4,5-trimethoxyphenyl)methanone hydrochloride] |  |  |  |  |  | 4.86 | 6.65 | 8.82 | 4.04 | 5.52
